Results published in patent US9260439B2, “Dihydropyrrolopyrimidine derivatives” (PFIZER INC., priority 2014, dated 2016).

Target: truncated PI3Kα (p110α/iSH2 p85α) (Homo sapiens (Human), UniProt P42336)
Experiment: PI3KA_Act fluorescence polarization kinase assay (Ki)
Format: biochemical
Conditions: 1 mM ATP
Description: 2) p110α-iSH2 p85α Complex (Full Length p110α and p85α iSH2)(“PI3KA_Act”)
Genes encoding for full length p110α and p85α nSH-iSH2=niSH2 (p85a aminoacids 322-600) subunits of PI3Kα complex were subcloned from existing constructs into pFASTBAC Dual vector (Life Technologies, Carlsbad, Calif.) using standard cloning procedures. Gene encoding p110α subunit was subcloned into polyhedrine promoter while gene encoding p85α niSH2 domains was subcloned into p10 promoter. Additionally, Human Rhinovirus 3C Protease (“HRV 3C”) site was introduced between nSH2 and iSH2, replacing aminoacids 431-438 of p85α with […] HRV 3C recognition sequence, using standard QuickChange mutagenesis protocol (Agilent Technologies, CA). Recombinant baculovirus was generated using Bac-to-Bac protocol (Life Technologies, Carlsbad, Calif.). Large scale expression was conducted in Sf21 (Life Technologies, Carlsbad, Calif.) cells at a multiplicity of infection (“MOI”)=1 for 48 hours. Cells were lyzed in 50 mM Tris pH 8.0, 250 mM NaCl, 5% glycerol, 0.25 mM TCEP, and 20 mM imidazole. The p110α-niSH2 p85α complex was purified from clarified supernatant using Immobilized Metalo Affinity Chromatography (“IMAC”). The protein was eluted from the column using 50 mM Tris pH 8.0, 200 mM NaCl, 0.25 mM TCEP, and 200 mM imidazole. Following elution p110α-niSH2 p85α complex was dialyzed against 4 liters of 50 mM Tris pH 8.0, 200 mM NaCl, 0.25 mM TCEP, and 40 mM imidazole in the presence of PreScission Protease (1:70 molar ratio of Protease to Protein) and TEV protease (1:40 molar ratio protease to protein) for 16 hours at 4° C. The protein was further purified using reverse IMAC to remove cleaved histidine tag and contaminants captured during initial IMAC purification. The mixture of p110α-iSH2 p85α complex and cleaved nSH2 was recovered in reverse IMAC 40 mM imidazole flow through and 60 mM imidazole wash fractions. Those fractions were pulled together and loaded on Superdex 200 26/60 SEC column equilibrated in 25 mM Tris, pH 8.0, 100 mM NaCl, 2% glycerol, and 2 mM TCEP. Following SEC, chromatography peak fractions containing p110α-iSH2 p85α complex were pulled and concentrated to 4.3 mg/mL. Purity and integrity of the complex was confirmed using LCMS, analytical SEC and SDS-PAGE (sodium dodecyl sulfate polyacrylamide gel electrophoresis) analysis.
The biochemical assays of kinase activity of full-length PI3Kα (full-length p110α/p85a) or truncated PI3Kα (p110α/iSH2 p85a) were conducted using a fluorescence polarization format similar to the procedure of Yuan J., et al., (2011) “PF-04691502, a Potent and Selective Oral Inhibitor of PI3K and mTOR Kinases with Antitumor Activity”, Mol Cancer Ther. 10, 2189-2199. The enzymatic reactions were conducted in 50 μL volumes in 96-well plates. The reactions contained human recombinant PI3Kα (2 nM full-length p110α/p85α or 0.5 nM p110α/iSH2 p85) and 30 μM phosphatidylinositol 4,5-bisphosphate (“PIP2”) (Cayman Chemical Company, Ann Arbor, Mich.) and were sonicated for 1 minute prior to adding PI3Kα enzyme (PI3KA_Act or PI3KA_FL), DMSO or test compound (12-point 3-fold serial dilution, 3 μM top dose, 2° A) DMSO final concentration), 5 mM MgCl2, 50 mM HEPES pH 7.4, 150 mM NaCl, 1 mM DTT ((2S,3S)-1,4-bis(sulfanyl)butane-2,3-diol), and 0.05% 3-[(3-cholamidopropyl)dimethylammonio]-1-propanesulfonate (“CHAPS”). […] The reactions were incubated for 30 min at room temperature, stopped with EDTA pH 8 (10 mM final concentration). In a detection plate, 15 μL of detector/probe mixture, containing 480 nM GST-Grp1 PH domain protein (University of Dundee, Dundee, UK) and 12 nM carboxytetramethylrhodamine (“TAMRA”)-tagged fluorescent phosphatidylinositol (3,4,5)-triphosphate (“PIP3”) (Echelon Biosciences, Inc., Salt Lake City, Utah) in assay buffer, was mixed with 15 μL of kinase reaction mixture. The plate was shaken for 30 minutes and fluorescence polarization values were measured on an LJL Analyst HT plate reader (Molecular Devices, Sunnyvale, Calif.). […]

Sequence of truncated PI3Kα (p110α/iSH2 p85α) (P42336 whole entry, the tested form may be a part): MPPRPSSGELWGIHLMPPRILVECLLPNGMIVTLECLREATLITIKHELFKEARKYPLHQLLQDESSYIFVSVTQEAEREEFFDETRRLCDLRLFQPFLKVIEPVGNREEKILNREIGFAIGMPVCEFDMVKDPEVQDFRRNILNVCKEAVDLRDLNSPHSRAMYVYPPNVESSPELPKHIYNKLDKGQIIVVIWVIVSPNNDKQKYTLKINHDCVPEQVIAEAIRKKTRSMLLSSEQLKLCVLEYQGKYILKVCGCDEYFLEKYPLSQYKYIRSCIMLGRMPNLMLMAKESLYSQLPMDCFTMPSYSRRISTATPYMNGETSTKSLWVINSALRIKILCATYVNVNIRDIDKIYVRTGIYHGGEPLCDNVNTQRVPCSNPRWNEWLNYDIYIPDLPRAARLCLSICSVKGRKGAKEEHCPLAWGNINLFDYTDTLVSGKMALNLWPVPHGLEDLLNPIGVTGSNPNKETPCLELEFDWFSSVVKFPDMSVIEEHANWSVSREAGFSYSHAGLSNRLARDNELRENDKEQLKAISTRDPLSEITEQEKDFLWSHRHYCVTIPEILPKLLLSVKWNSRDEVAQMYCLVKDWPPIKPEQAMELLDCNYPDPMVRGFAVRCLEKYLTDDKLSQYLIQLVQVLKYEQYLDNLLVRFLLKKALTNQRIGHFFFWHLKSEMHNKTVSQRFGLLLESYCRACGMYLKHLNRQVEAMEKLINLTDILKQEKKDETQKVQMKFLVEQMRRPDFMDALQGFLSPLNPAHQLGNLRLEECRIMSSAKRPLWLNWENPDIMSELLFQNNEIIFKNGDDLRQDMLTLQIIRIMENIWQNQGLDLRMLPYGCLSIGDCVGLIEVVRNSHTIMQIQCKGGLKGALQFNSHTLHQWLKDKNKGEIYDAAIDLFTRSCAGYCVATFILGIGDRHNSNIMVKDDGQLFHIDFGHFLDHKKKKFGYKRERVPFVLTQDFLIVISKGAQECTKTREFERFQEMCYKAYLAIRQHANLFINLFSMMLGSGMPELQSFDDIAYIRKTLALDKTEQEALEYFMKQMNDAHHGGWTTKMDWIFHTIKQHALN

Compound | PI3KA_Act Ki
C[C@H]1COCCN1c1nc(-c2cnc(N)nc2)c2c(n1)N(C(C)(C)C)CC2 [Example 157] | 173 pM
Nc1ncc(-c2nc(N3CCOCC3)nc3c2CCN3C23CC(C2)C3)cn1 [Example 158] | 200 pM
C[C@H]1COCCN1c1nc(-c2cnc(N)nc2)c2c(n1)N(C1CN(S(=O)(=O)CC3CC3)C1)CC2 [Example 159] | 97 pM
C[C@H]1COCCN1c1nc(-c2cnc(N)nc2)c2c(n1)N(C1CN(S(=O)(=O)c3cnn(C)c3)C1)CC2 [Example 160] | 221 pM
COCCCS(=O)(=O)N1CC(N2CCc3c(-c4cnc(N)nc4)nc(N4CCOCC4)nc32)C1 [Example 161] | 202 pM
C[C@H]1COCCN1c1nc(-c2cnc(N)nc2)c2c(n1)N(C1CN(S(=O)(=O)C(F)(F)F)C1)CC2 [Example 163] | 188 pM
C[C@H]1COCCN1c1nc(-c2cnc(N)nc2)c2c(n1)N(C1(C)CCN(S(C)(=O)=O)C1)CC2 (stereo partly shown) [Example 164] | 30 pM
COC(=O)C(C)(C)N1CCc2c(-c3cnc(N)nc3)nc(N3CCOCC3)nc21 [Example 165] | 449 pM
C[C@H]1COCCN1c1nc(-c2cnc(N)nc2)c2c(n1)N(C1CN(P(C)(C)=O)C1)CC2 [Example 166] | 280 pM
C[C@H](O)COC(=O)N1CC(N2CCc3c(-c4cnc(N)nc4)nc(N4CCOCC4)nc32)C1 [Example 167] | 230 pM
C[C@H]1COCCN1c1nc(-c2cnc(N)nc2)c2c(n1)N([C@H]1CCN(P(C)(C)=O)C1)CC2 [Example 168] | 297 pM
Nc1ncc(-c2nc(N3CCOCC3)nc3c2CCN3C2CN(S(=O)(=O)CC3CC3)C2)cn1 [Example 169] | 129 pM
COCCS(=O)(=O)N1CC(N2CCc3c(-c4cnc(N)nc4)nc(N4CCOCC4)nc32)C1 [Example 170] | 124 pM
Nc1ncc(-c2nc(N3CCOC[C@@H]3CO)nc3c2CCN3C2CC(F)(F)C2)cn1 [Example 171] | 2745 pM
CNS(=O)(=O)N1CC[C@@](C)(N2CCc3c(-c4cnc(N)nc4)nc(N4CCOCC4)nc32)C1 [Example 172] | 29 pM
CNS(=O)(=O)N1CC[C@](C)(N2CCc3c(-c4cnc(N)nc4)nc(N4CCOCC4)nc32)C1 [Example 173] | <18 pM
C[C@H]1COCCN1c1nc(-c2cnc(N)nc2)c2c(n1)N([C@]1(C)CCN(S(C)(=O)=O)C1)CC2 [Example 174] | 30 pM
C[C@H]1COCCN1c1nc(-c2cnc(N)nc2)c2c(n1)N([C@@]1(C)CCN(S(C)(=O)=O)C1)CC2 [Example 175] | 23 pM
CC(C)C(C)(C)N1CCc2c(-c3cnc(N)nc3)nc(N3CCOCC3)nc21 [Example 176] | 462 pM
C[C@H]1COCCN1c1nc(-c2cnc(N)nc2)c2c(n1)N([C@@H]1CCN(P(C)(C)=O)C1)CC2 [Example 177] | 615 pM
Cn1cc(S(=O)(=O)N2CC(N3CCc4c(-c5cnc(N)nc5)nc(N5CCOCC5)nc43)C2)cn1 [Example 178] | 125 pM
Cn1cnc(S(=O)(=O)N2CC(N3CCc4c(-c5cnc(N)nc5)nc(N5CCOCC5)nc43)C2)c1 [Example 179] | 344 pM
CP(C)(=O)N1CC[C@@H](N2CCc3c(-c4cnc(N)nc4)nc(N4CCOCC4)nc32)C1 [Example 180] | 1759 pM
CP(C)(=O)N1CC[C@H](N2CCc3c(-c4cnc(N)nc4)nc(N4CCOCC4)nc32)C1 [Example 181] | 296 pM
C[C@H](O)COC(=O)N1CC(N2CCc3c(-c4cnc(N)nc4)nc(N4CCOC[C@@H]4C)nc32)C1 [Example 182] | 357 pM

Compound | PI3KA_Act Ki
CC(C)(CO)N1CCc2c(-c3cnc(N)nc3)nc(N3CCOCC3)nc21 [Example 183] | 393 pM
CCC(C)(C)N1CCc2c(-c3cnc(N)nc3)nc(N3CCOCC3)nc21 [Example 184] | 647 pM
C[C@@H](O)COC(=O)N1CC(N2CCc3c(-c4cnc(N)nc4)nc(N4CCOCC4)nc32)C1 [Example 185] | 182 pM
C[C@@H](O)COC(=O)N1CC(N2CCc3c(-c4cnc(N)nc4)nc(N4CCOC[C@@H]4C)nc32)C1 [Example 186] | 274 pM
CCCC(C)(C)N1CCc2c(-c3cnc(N)nc3)nc(N3CCOCC3)nc21 [Example 187] | 839 pM
COCC(C)(C)N1CCc2c(-c3cnc(N)nc3)nc(N3CCOCC3)nc21 [Example 188] | 642 pM
CP(C)(=O)N1CC(N2CCc3c(-c4cnc(N)nc4)nc(N4CCOCC4)nc32)C1 [Example 189] | 1162 pM
CNS(=O)(=O)N1CC(C)(N2CCc3c(-c4cnc(N)nc4)nc(N4CCOCC4)nc32)C1 [Example 190] | 40 pM
CC(C)(CNS(C)(=O)=O)N1CCc2c(-c3cnc(N)nc3)nc(N3CCOCC3)nc21 [Example 191] | 881 pM
C[C@@]1(N2CCc3c(-c4cnc(N)nc4)nc(N4CCOCC4)nc32)CCN(S(N)(=O)=O)C1 [Example 192] | 53 pM
CC(C)(C)OC(=O)N1CC[C@](C)(N2CCc3c(-c4cnc(N)nc4)nc(N4CCOCC4)nc32)C1 [Example 194] | <18 pM
CC(C)(C)OC(=O)N1CC[C@@](C)(N2CCc3c(-c4cnc(N)nc4)nc(N4CCOCC4)nc32)C1 [Example 195] | 166 pM
CCS(=O)(=O)N1CC(C)(N2CCc3c(-c4cnc(N)nc4)nc(N4CCOCC4)nc32)C1 [Example 196] | 24 pM
CC1(N2CCc3c(-c4cnc(N)nc4)nc(N4CCOCC4)nc32)CN(S(=O)(=O)C2CC2)C1 [Example 197] | 40 pM
CC(C)S(=O)(=O)N1CC(C)(N2CCc3c(-c4cnc(N)nc4)nc(N4CCOCC4)nc32)C1 [Example 198] | 24 pM
CC1(N2CCc3c(-c4cnc(N)nc4)nc(N4CCOCC4)nc32)CNC1 [Example 199] | 151 pM
CCOC(=O)C(C)(C)N1CCc2c(-c3cnc(N)nc3)nc(N3CCOC[C@@H]3C)nc21 [Example 200] | 909 pM
COCCC(=O)N1CC(N2CCc3c(-c4cnc(N)nc4)nc(N4CCOC[C@@H]4C)nc32)C1 [Example 202] | 1037 pM
CCS(=O)(=O)N1CC(C)(N2CCc3c(-c4cnc(N)nc4)nc(N4CCOC[C@@H]4C)nc32)C1 [Example 203] | 32 pM
CC(C)S(=O)(=O)N1CC(C)(N2CCc3c(-c4cnc(N)nc4)nc(N4CCOC[C@@H]4C)nc32)C1 [Example 204] | <18 pM
C[C@H]1COCCN1c1nc(-c2cnc(N)nc2)c2c(n1)N(C1(C)CN(S(=O)(=O)C3CC3)C1)CC2 [Example 205] | 21 pM
C[C@H]1COCCN1c1nc(-c2cnc(N)nc2)c2c(n1)N(C1(C)CN(S(C)(=O)=O)C1)CC2 [Example 206] | 31 pM
C[C@H]1COCCN1c1nc(-c2cnc(N)nc2)c2c(n1)N(C1CN(S(=O)(=O)C3CN(C(=O)OC(C)(C)C)C3)C1)CC2 [Example 207] | 100 pM
CC1(N2CCc3c(-c4cnc(N)nc4)nc(N4CCOCC4)nc32)CN(S(N)(=O)=O)C1 [Example 208] | 62 pM
